Results reported in publication PMC7321408, “One-Pot Multicomponent Synthesis and Bioevaluation of Tetrahydroquinoline Derivatives as Potential Antioxidants, α-Amylase Enzyme Inhibitors, Anti-Cancerous and Anti-Inflammatory Agents” (Molecules, 2020).
≈ marks a conversion by molar mass, not a printed value. Blank lines part the entries; values can stand above or below the compound they belong to.

What was measured:
[1] = test system: carrageenan-induced paw edema; experiment: Carrageenan-induced paw edema (in vivo anti-inflammatory activity); design: species or system BALB/C albino mice; unit not given beside the values; conditions: 10 mg/kg, mice, n = 5
Procedure: At 7–8 weeks old, male BALB/C albino mice (29–35 g), were purchased from The National Institute of Health (NIH), Islamabad, Pakistan. Five animals were housed per group and placed in a controlled temperature and humidity-controlled room (22 °C and 66 ± 5%, respectively) in a 12 h light–dark cycle and provided with water and food ad libitum. Ethical approval was taken from the bio-ethical committee of Quaid-I-Azam University (Approval No. BEC-FBS-QAU2018-119) and all protocols were conducted following the Ethical Guide to the Code of Practice for the Housing and Care of Animals Act 1986 (ARRIVE (Animal Research: Reporting In Vivo Experiments) guidelines). The anti-inflammatory activity of the synthesized compounds was evaluated by using the carrageenan-induced rat paw edema assay. To determine the dose response of tetrahydroquinoline derivatives, animals were first given a dose of 0.1, 1 and 10 mg/kg against 100 µL carrageenan (1% solution in normal saline)/paw. Treatment was given 60 min before carrageenan injection. Readings were taken at 4 h post carrageenan injection. The in vivo anti-inflammatory activity was performed following the procedure described by Koksal, et al. in 2017. Paw edema was induced by injecting 100 µL of 1% sterile carrageenan solution into the right hind paw of mice. Synthesized compounds (10 mg/kg), vehicle (saline with 2% DMSO) and drug (acetylsalicylic acid, ASA 10 mg/kg) were administered to the mice orally by gastric intubation 60 min before injecting carrageenan into the right hind paw. The decrease in edema was measured by vernier calipers every 2 h.

brine shrimp nauplii = experiment: Brine shrimp lethality bioassay; type: in vivo; conditions: 24 h, n = 3
Procedure: Brine shrimp eggs were hatched in a shallow rectangular plastic dish and filled with artificial seawater, which was prepared with a commercial salt mixture. In a 96-well plate, 150 µL of artificial seawater was added and 10 nauplii were added into this. Test compounds (400, 200, 100 and 50 µg/mL) were added into each well and the final volume was made up by adding the artificial seawater. The well plate was left uncovered under a lamp. The number of surviving shrimps were counted and recorded after 24 h. The test was repeated in triplicate. […] The percentage mortality (%M) was also calculated by dividing the number of dead nauplii by the total number and then multiplied by 100.

[2] = DPPH free radical scavenging assay; conditions: mean ± SEM, n = 3; for IC50 (DPPH radical scavenging): concentration to scavenge 50% of the DPPH radicals
Procedure: The % free radical scavenging activity (%FRSA) of the synthetic compounds was evaluated by the discoloration of an unstable DPPH reagent to the stable yellow-colored 2,2-diphenyl-1-picrylhydrazine molecule by accepting one electron from a donor antioxidant; the mechanism is shown in Scheme 2.
The % FRSA (free radical scavenging activity) of the synthetic compounds was determined by using the method of Tai et al. with slight modifications. The antioxidant potential was determined by detecting the capacity of the synthetic compounds to quench the DPPH free radicals. The synthetic compounds were taken in a 96-well plate at three-fold concentrations of 200 µg/mL, 66.6 µg/mL, 22.2 µg/mL and 7.4 µg/mL. DPPH free radicals were added to entire wells to make up the volume up to 200 µL. DMSO and ascorbic acid were taken as negative and positive controls, respectively. The absorbance was taken at 630nm using a microplate reader (ELx800 BioTek). The percentage of scavenging activity was calculated by the given formula:% scavenging activity = (1 − Abs/Abc) × 100
Abs = sample’s absorbance; Abc = control’s absorbance.

α-amylase enzyme = experiment: α-Amylase enzyme inhibitory assay; type: biochemical; conditions: 200 µg/mL
Procedure: An in vitro α-amylase enzyme inhibitory assay was performed by the standard protocol. Four milligrams per 1 mL of sample was prepared in DMSO. In each well of a 96-well plate, synthetic compounds were added to a final concentration of 200 µg/mL. To this, 15 μL phosphate buffer, […] α-amylase enzyme and 40 μL starch solution were added stepwise. The microplate was incubated at 50 °C for 30 min. […] The formula used to calculate the percent enzyme inhibition is:% Enzyme inhibition = [(As − An) ÷ (Ab − An] × 100
As = sample’s absorbance; An = negative’s absorbance; Ab = blank’s absorbance

[3] = test system: NO generated by LPS-induced macrophages; experiment: Nitric oxide assay (Griess) in LPS-induced macrophages; type: cell-based, murine; conditions: for activity at 1 µM / activity at 10 µM / activity at 50 µM / activity at 100 µM: 18 h, LPS 1 µg/mL, read-out: % NO Production (Mean ± SEM)
Procedure: A Griess reagent, a spectrophotometric determination of nitrite level, was carried out to measure the nitrite level in the conditioned medium of macrophages treated with lipopolysaccharide (LPS). Sodium nitrite (NaNO2) was used as a standard compound for the standard curve (Figure 8). The NO concentrations were obtained using the standard curve equation: y = 0.0083x + 0.0017, R^2 = 0.9999, where y is the absorbance at 540 nm and x is the NO concentration in µM. The inhibitory activity of the tested compounds towards NO generated by LPS-induced macrophages was obtained from the calculated value of x.
The anti-inflammatory effect of the synthesized compounds in murine macrophages was evaluated by using the Griess reaction method, described previously. In brief, 1 × 10^6 were plated in a 96-well plate and incubated in a 5% CO2 incubator at 37 °C for 24 h, pre-treated with different concentrations (100 µM, 50 µM, 10 µM and 1 µM) of synthetic compounds for another 2 h and challenged with LPS (1 µg/mL) for an additional 18 h. Equal volumes of Griess reagent (1% sulphanilamide in 50% phosphoric acid and 0.1% naphthyl ethylenediamine dihydrochloride in distilled water and vortexed) and culture medium were mixed and the absorbance was taken at 540 nm. Lipopolysaccharide (LPS) was taken as a blank and piroxicam was taken as a positive control. A t-test was applied to determine the significance of the results.

[4] = MTT cytotoxicity against raw macrophages; type: cell-based, albino rats; conditions: albino, rat; for viability at 24 h, 1 µM / viability at 24 h, 10 µM / viability at 24 h, 50 µM / viability at 24 h, 100 µM: peritoneal macrophages (raw macrophages), raw macrophages, MTT, read-out: % Cell Viability; for IC50 at 24 h: primary peritoneal macrophages, mean ± SEM, n = 3
Procedure: The % cell viability of the synthetic library was evaluated in vitro by measuring the mitochondrial dehydrogenase activity (MTT test) on raw macrophages.
The cytotoxic potential was assessed by using an MTT 3-(4,5-dimethyl thiazole-2-yl)-2,5- diphenyl tetrazolium bromide assay. Briefly, macrophages were extracted from the peritoneal cavity of albino rats and plated at a density of 1 × 10^6 per well in a 96-well plate and incubated in a 5% CO2 incubator at 37 °C for 24 h. The cells were treated with various concentrations of the test compounds (100 µM, 50 µM, 10 µM and 1 µM) or vehicle alone. The test compounds were first dissolved in DMSO to make a 100 mM stock solution and then further dilutions were made from this stock solution. After 24 h of incubation, 20 µL of MTT (1 mg/mL in normal saline) was added into each well and incubated under the same conditions for 2 h. Mitochondrial succinate dehydrogenase converted MTT in live cells into purple formazan crystals. The formazan crystals were then solubilized in 100 µL DMSO, and the absorbance was measured at 570 nm. The % cell viability was calculated by the following formula; % cell viability = (abssample − absblank)/(abscontrol − absblank) × 100

[5] = 0 h after carrageenan injection
[6] = 2 h after carrageenan injection
[7] = 4 h after carrageenan injection
[8] = 6 h after carrageenan injection
[9] = Mus musculus, Macrophage, 50 µM

IC50 (DPPH radical scavenging) [2]: 42.55 ± 0.36 µg/mL (≈ 183 µM) | % inhibition of α-amylase enzyme (α-amylase enzyme): 79.97%
SMILES: c1ccc2c(c1)CCCN2CN1CCOCC1 [SF2, 4-((3,4-Dihydroquinolin—1(2H)-yl)methyl) morpholine]
Paw thickness [1, 5]: 2.05 ± 0.05 | Paw thickness [1, 6]: 2.11 ± 0.06 | Paw thickness [1, 7]: 2.17 ± 0.03 | Paw thickness [1, 8]: 2.23 ± 0.07 | LD50 ± SEM (brine shrimp lethality) (brine shrimp nauplii): 141.4 ± 2.1 µg/mL | % DPPH Scavenging Activity ([2]; 7.4 µg/mL): 17.44 ± 0.26% | % DPPH Scavenging Activity ([2]; 22.22 µg/mL): 36.61 ± 0.22% | % DPPH Scavenging Activity ([2]; 66.66 µg/mL): 58.39 ± 0.27% | % DPPH Scavenging Activity ([2]; 200 µg/mL): 71.85 ± 0.27% | activity at 1 µM ([3]; Mus musculus, Macrophage, 1 µM): 32.2 ± 0.46% | activity at 10 µM ([3]; Mus musculus, Macrophage): 27.1 ± 0.36% | activity at 50 µM [3, 9]: 22.1 ± 0.33% | activity at 100 µM ([3]; Mus musculus, Macrophage): 15.3 ± 0.29% | viability at 24 h, 1 µM [4]: 76 ± 0.46% | viability at 24 h, 10 µM [4]: 70 ± 0.91% | viability at 24 h, 50 µM [4]: 60 ± 0.91% | viability at 24 h, 100 µM [4]: 50 ± 1.52% | IC50 at 24 h [4]: 26.8 ± 0.3 µM

IC50 (DPPH radical scavenging) [2]: 52.75 ± 0.28 µg/mL (≈ 244 µM)
SMILES: c1ccc2c(c1)CCCN2CN1CCCC1 [SF3, 1-(Pyrollidin-1-ylmethyl) -1,2,3,4-tetrahydroquinoline]
Paw thickness [1, 5]: 2.05 ± 0.06 | Paw thickness [1, 6]: 2.16 ± 0.05 | Paw thickness [1, 7]: 2.22 ± 0.02 | Paw thickness [1, 8]: 2.28 ± 0.07 | LD50 ± SEM (brine shrimp lethality) (brine shrimp nauplii): 102 ± 1.98 µg/mL | % DPPH Scavenging Activity ([2]; 7.4 µg/mL): 3.76 ± 0.125% | % DPPH Scavenging Activity ([2]; 22.22 µg/mL): 9.85 ± 0.18% | % DPPH Scavenging Activity ([2]; 66.66 µg/mL): 18.32 ± 0.91% | % DPPH Scavenging Activity ([2]; 200 µg/mL): 27.19 ± 0.31% | activity at 1 µM ([3]; Mus musculus, Macrophage, 1 µM): 33.2 ± 0.47% | activity at 10 µM ([3]; Mus musculus, Macrophage): 29.6 ± 0.42% | activity at 50 µM [3, 9]: 23.8 ± 0.39% | activity at 100 µM ([3]; Mus musculus, Macrophage): 19.7 ± 0.37% | viability at 24 h, 1 µM [4]: 83 ± 0.63% | viability at 24 h, 10 µM [4]: 78 ± 0.74% | viability at 24 h, 50 µM [4]: 72 ± 1.34% | viability at 24 h, 100 µM [4]: 41 ± 1.07% | IC50 at 24 h [4]: 29.1 ± 0.5 µM

% inhibition of α-amylase enzyme (α-amylase enzyme): 10.51%
SMILES: CC(=O)N(CN1CCCc2ccccc21)c1ccc(O)cc1 [SF13, N-((3,4-dihydroquinolin-1(2H)-yl)methyl)-N-(4-hydroxyphenyl) acetamide]
Paw thickness [1, 5]: 2.04 ± 0.07 | Paw thickness [1, 6]: 2.18 ± 0.03 | Paw thickness [1, 7]: 2.26 ± 0.06 | Paw thickness [1, 8]: 2.31 ± 0.07 | LD50 ± SEM (brine shrimp lethality) (brine shrimp nauplii): 204 ± 1.67 µg/mL | % DPPH Scavenging Activity ([2]; 7.4 µg/mL): 1.98 ± 0.20% | % DPPH Scavenging Activity ([2]; 22.22 µg/mL): 4.44 ± 0.18% | % DPPH Scavenging Activity ([2]; 66.66 µg/mL): 11.78 ± 0.15 s % | % DPPH Scavenging Activity ([2]; 200 µg/mL): 19.34 ± 0.34% | NO level scavenged (maximum) ([3]; 50 µM): 85% | activity at 1 µM ([3]; Mus musculus, Macrophage, 1 µM): 25.1 ± 0.59% | activity at 10 µM ([3]; Mus musculus, Macrophage): 22.2 ± 0.52% | activity at 50 µM [3, 9]: 15.6 ± 0.47% | activity at 100 µM ([3]; Mus musculus, Macrophage): 14.5 ± 0.44% | inhibition at 1 µM ([3]; Mus musculus, Macrophage, 1 µM, read-out: NO maximum inhibition): 75% | viability at 24 h, 1 µM [4]: 85 ± 0.93% | viability at 24 h, 10 µM [4]: 82 ± 0.66% | viability at 24 h, 50 µM [4]: 73 ± 1.01% | viability at 24 h, 100 µM [4]: 60 ± 1.24% | IC50 at 24 h [4]: 41.4 ± 0.69 µM
